Assay results taken from patent US20240238242A1, “EGCG buccal tablet and use thereof” (priority 2023, published 2024).
Values joined by “and” are separate entries in the source; they are usually repeats but may differ in a detail not shown here. Equal entries are not always repeated. Where two headings read alike, the source gives them in different places.

System: Influenza A virus neuraminidase inhibitor-resistant strain (ZX-1109)
Format: cell-based

O=C(O[C@@H]1Cc2c(O)cc(O)cc2O[C@@H]1c1cc(O)c(O)c(O)c1)c1cc(O)c(O)c(O)c1 [EGCG, Epigallocatechin gallate]
CPE test per cell well (0.2 mM EGCG + ZX1109 virus, 1 minute, second experiment, dilution factor 10^1, wells 1-10): +
CPE test per cell well (0.2 mM EGCG + ZX1109 virus, 1 minute, second experiment, dilution factor 10^2, wells 1-10): +
CPE test per cell well (0.2 mM EGCG + ZX1109 virus, 1 minute, second experiment, dilution factor 10^3, wells 1-10): +
CPE test per cell well (0.2 mM EGCG + ZX1109 virus, 1 minute, second experiment, dilution factor 10^4, wells 1-10): +
CPE test per cell well (0.2 mM EGCG + ZX1109 virus, 1 minute, second experiment, dilution factor 10^5, wells 1-10): + and −
CPE test per cell well (0.2 mM EGCG + ZX1109 virus, 1 minute, second experiment, dilution factor 10^6, wells 1-10): −
CPE test per cell well (0.2 mM EGCG + ZX1109 virus, 1 minute, second experiment, dilution factor 10^7, wells 1-10): −
CPE test per cell well (0.2 mM EGCG + ZX1109 virus, 1 minute, second experiment, dilution factor 10^8, wells 1-10): −
CPE test per cell well (0.2 mM EGCG + ZX-1109 virus, 1 minute, first experiment, dilution factor 10^1, wells 1-10): +
CPE test per cell well (0.2 mM EGCG + ZX-1109 virus, 1 minute, first experiment, dilution factor 10^2, wells 1-10): +
CPE test per cell well (0.2 mM EGCG + ZX-1109 virus, 1 minute, first experiment, dilution factor 10^3, wells 1-10): +
CPE test per cell well (0.2 mM EGCG + ZX-1109 virus, 1 minute, first experiment, dilution factor 10^4, wells 1-10): +
CPE test per cell well (0.2 mM EGCG + ZX-1109 virus, 1 minute, first experiment, dilution factor 10^5, wells 1-10): + and −
CPE test per cell well (0.2 mM EGCG + ZX-1109 virus, 1 minute, first experiment, dilution factor 10^6, wells 1-10): + and −
CPE test per cell well (0.2 mM EGCG + ZX-1109 virus, 1 minute, first experiment, dilution factor 10^7, wells 1-10): −
CPE test per cell well (0.2 mM EGCG + ZX-1109 virus, 1 minute, first experiment, dilution factor 10^8, wells 1-10): −
CPE test (virus replication in the cell wells) (0.2 mM EGCG + ZX-1109 virus, 1 minute, third experiment, dilution factor 10^1, wells 1-10): +
CPE test (virus replication in the cell wells) (0.2 mM EGCG + ZX-1109 virus, 1 minute, third experiment, dilution factor 10^2, wells 1-10): +
CPE test (virus replication in the cell wells) (0.2 mM EGCG + ZX-1109 virus, 1 minute, third experiment, dilution factor 10^3, wells 1-10): +
CPE test (virus replication in the cell wells) (0.2 mM EGCG + ZX-1109 virus, 1 minute, third experiment, dilution factor 10^4, wells 1-10): +
CPE test (virus replication in the cell wells) (0.2 mM EGCG + ZX-1109 virus, 1 minute, third experiment, dilution factor 10^5, wells 1-10): − and +
CPE test (virus replication in the cell wells) (0.2 mM EGCG + ZX-1109 virus, 1 minute, third experiment, dilution factor 10^6, wells 1-10): + and −
CPE test (virus replication in the cell wells) (0.2 mM EGCG + ZX-1109 virus, 1 minute, third experiment, dilution factor 10^7, wells 1-10): −
CPE test (virus replication in the cell wells) (0.2 mM EGCG + ZX-1109 virus, 1 minute, third experiment, dilution factor 10^8, wells 1-10): −
CPE test (virus replication in the cell wells) (0.2 mM EGCG + ZX-1109 virus, 5 minute, first experiment, dilution factor 10^1, wells 1-10): +
CPE test (virus replication in the cell wells) (0.2 mM EGCG + ZX-1109 virus, 5 minute, first experiment, dilution factor 10^2, wells 1-10): +
CPE test (virus replication in the cell wells) (0.2 mM EGCG + ZX-1109 virus, 5 minute, first experiment, dilution factor 10^3, wells 1-10): +
CPE test (virus replication in the cell wells) (0.2 mM EGCG + ZX-1109 virus, 5 minute, first experiment, dilution factor 10^4, wells 1-10): +
CPE test (virus replication in the cell wells) (0.2 mM EGCG + ZX-1109 virus, 5 minute, first experiment, dilution factor 10^5, wells 1-10): +
CPE test (virus replication in the cell wells) (0.2 mM EGCG + ZX-1109 virus, 5 minute, first experiment, dilution factor 10^6, wells 1-10): − and +
CPE test (virus replication in the cell wells) (0.2 mM EGCG + ZX-1109 virus, 5 minute, first experiment, dilution factor 10^7, wells 1-10): − and +
CPE test (virus replication in the cell wells) (0.2 mM EGCG + ZX-1109 virus, 5 minute, first experiment, dilution factor 10^8, wells 1-10): − and +
CPE test (virus replication in the cell wells) (0.2 mM EGCG + ZX-1109 virus, 5 minute, second experiment, dilution factor 10^1, wells 1-10): +
CPE test (virus replication in the cell wells) (0.2 mM EGCG + ZX-1109 virus, 5 minute, second experiment, dilution factor 10^2, wells 1-10): +
CPE test (virus replication in the cell wells) (0.2 mM EGCG + ZX-1109 virus, 5 minute, second experiment, dilution factor 10^3, wells 1-10): +
CPE test (virus replication in the cell wells) (0.2 mM EGCG + ZX-1109 virus, 5 minute, second experiment, dilution factor 10^4, wells 1-10): +
CPE test (virus replication in the cell wells) (0.2 mM EGCG + ZX-1109 virus, 5 minute, second experiment, dilution factor 10^5, wells 1-10): + and −
CPE test (virus replication in the cell wells) (0.2 mM EGCG + ZX-1109 virus, 5 minute, second experiment, dilution factor 10^6, wells 1-10): − and +
CPE test (virus replication in the cell wells) (0.2 mM EGCG + ZX-1109 virus, 5 minute, second experiment, dilution factor 10^7, wells 1-10): −
CPE test per cell well (0.2 mM EGCG + ZX-1109 virus, 5 minute, third experiment, dilution factor 10^1, wells 1-10): +
CPE test per cell well (0.2 mM EGCG + ZX-1109 virus, 5 minute, third experiment, dilution factor 10^2, wells 1-10): +
CPE test per cell well (0.2 mM EGCG + ZX-1109 virus, 5 minute, third experiment, dilution factor 10^3, wells 1-10): +
CPE test per cell well (0.2 mM EGCG + ZX-1109 virus, 5 minute, third experiment, dilution factor 10^4, wells 1-10): +
CPE test per cell well (0.2 mM EGCG + ZX-1109 virus, 5 minute, third experiment, dilution factor 10^5, wells 1-10): +
CPE test per cell well (0.2 mM EGCG + ZX-1109 virus, 5 minute, third experiment, dilution factor 10^6, wells 1-10): + and −
CPE test per cell well (0.2 mM EGCG + ZX-1109 virus, 5 minute, third experiment, dilution factor 10^7, wells 1-10): + and −
CPE test per cell well (0.2 mM EGCG + ZX-1109 virus, 5 minute, third experiment, dilution factor 10^8, wells 1-10): − and +
average inactivation efficiency against virus (0.2 mM EGCG, ZX1109 virus, 5 minutes, three experiments): 92.16%
residual virus titer of EGCG+virus group (Karber method) (0.2 mM EGCG, ZX-1109 virus, 5 minutes): 10^7 TCID50/50 μL
inactivation efficiency against the virus (0.2 mM EGCG, ZX-1109 virus, 5 minutes, single experiment): 98.42% and 98.00% and 80.05%
CPE test per cell well (1 mM EGCG + ZX1109 virus, 1 minute, second experiment, dilution factor 10^1, wells 1-10): +
CPE test per cell well (1 mM EGCG + ZX1109 virus, 1 minute, second experiment, dilution factor 10^2, wells 1-10): +
CPE test per cell well (1 mM EGCG + ZX1109 virus, 1 minute, second experiment, dilution factor 10^3, wells 1-10): +
CPE test per cell well (1 mM EGCG + ZX1109 virus, 1 minute, second experiment, dilution factor 10^4, wells 1-10): +
CPE test per cell well (1 mM EGCG + ZX1109 virus, 1 minute, second experiment, dilution factor 10^5, wells 1-10): − and +
CPE test per cell well (1 mM EGCG + ZX1109 virus, 1 minute, second experiment, dilution factor 10^6, wells 1-10): −
CPE test per cell well (1 mM EGCG + ZX1109 virus, 1 minute, second experiment, dilution factor 10^7, wells 1-10): −
CPE test per cell well (1 mM EGCG + ZX1109 virus, 1 minute, second experiment, dilution factor 10^8, wells 1-10): −
CPE test per cell well (1 mM EGCG + ZX-1109 virus, 1 minute, first experiment, dilution factor 10^1, wells 1-10): +
CPE test per cell well (1 mM EGCG + ZX-1109 virus, 1 minute, first experiment, dilution factor 10^2, wells 1-10): +
CPE test per cell well (1 mM EGCG + ZX-1109 virus, 1 minute, first experiment, dilution factor 10^3, wells 1-10): +
CPE test per cell well (1 mM EGCG + ZX-1109 virus, 1 minute, first experiment, dilution factor 10^4, wells 1-10): +
CPE test per cell well (1 mM EGCG + ZX-1109 virus, 1 minute, first experiment, dilution factor 10^5, wells 1-10): + and −
CPE test per cell well (1 mM EGCG + ZX-1109 virus, 1 minute, first experiment, dilution factor 10^6, wells 1-10): −
CPE test per cell well (1 mM EGCG + ZX-1109 virus, 1 minute, first experiment, dilution factor 10^7, wells 1-10): −
CPE test per cell well (1 mM EGCG + ZX-1109 virus, 1 minute, first experiment, dilution factor 10^8, wells 1-10): −
CPE test (virus replication in the cell wells) (1 mM EGCG + ZX-1109 virus, 1 minute, third experiment, dilution factor 10^1, wells 1-10): +
CPE test (virus replication in the cell wells) (1 mM EGCG + ZX-1109 virus, 1 minute, third experiment, dilution factor 10^2, wells 1-10): +
CPE test (virus replication in the cell wells) (1 mM EGCG + ZX-1109 virus, 1 minute, third experiment, dilution factor 10^3, wells 1-10): +
CPE test (virus replication in the cell wells) (1 mM EGCG + ZX-1109 virus, 1 minute, third experiment, dilution factor 10^4, wells 1-10): +
CPE test (virus replication in the cell wells) (1 mM EGCG + ZX-1109 virus, 1 minute, third experiment, dilution factor 10^5, wells 1-10): + and −
